According to patent EP0774461A1, “Excitatory amino acid derivatives” (ELI LILLY AND COMPANY, priority 1995, dated 1997):

System: metabotropic glutamate receptors
Experiment: displacement of 1S,3R-ACPD-sensitive [3H]glutamate binding to rat brain cell membranes
Conditions: selective displacement of 1S,3R-ACPD-sensitive [3H]glutamate binding; crude membranes of rat forebrain
Method: The binding of [^3H]glutamate was conducted with crude membranes of rat forebrain as described by Schoepp and True. Schoepp and True, Neuroscience Lett., 145, 100-104 (1992) and Wright et al., J. Neurochemistry 63: 938-945 (1994).

N[C@]1(C(=O)O)CO[C@@H]2[C@@H](C(=O)O)[C@@H]21 (racemic) [Example 1, 1SR,4SR,5RS,6SR-4-Amino-2-Oxabicyclo[3.1.0]hexane-4,6-dicarboxylic Acid]
IC50: 0.055 µM
